Data published in patent publication US11690832B2, “Treatment of autoimmune diseases with combinations of RXR agonists and thyroid hormones” (Io Therapeutics, Inc., priority 2016, dated 2023).
“Also recorded” adds a separate entry of the source.

How the values were obtained:
[1] = target: T1, RXRγ (Homo sapiens, UniProt P48443); test: RXR homodimer transactivation assay (rCRBPII/RXRE-tk-Luc reporter) in CV-1 cells; format: cell-based
T1 construct: an expression construct including a full length RXRα, RXRβ, or RXRγ; expressed in transfected cells; host or cells: CV-1
T1 sequence (P48443 1-463): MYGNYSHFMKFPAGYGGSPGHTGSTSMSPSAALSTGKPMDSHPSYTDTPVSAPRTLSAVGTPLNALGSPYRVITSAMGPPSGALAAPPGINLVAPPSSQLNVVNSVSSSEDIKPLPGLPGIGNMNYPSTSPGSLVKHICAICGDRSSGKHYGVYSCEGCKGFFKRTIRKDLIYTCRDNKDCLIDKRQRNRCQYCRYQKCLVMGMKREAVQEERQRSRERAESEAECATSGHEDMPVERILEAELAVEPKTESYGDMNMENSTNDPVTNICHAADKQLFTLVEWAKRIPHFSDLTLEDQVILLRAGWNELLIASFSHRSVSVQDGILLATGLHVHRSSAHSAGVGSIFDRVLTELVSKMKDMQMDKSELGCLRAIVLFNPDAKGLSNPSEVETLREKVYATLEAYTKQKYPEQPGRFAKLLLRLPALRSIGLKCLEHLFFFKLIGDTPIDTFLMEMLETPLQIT
Description: To determine whether a RXR agonist can mediate its effects via RXRα receptor homodimers, RXRβ receptor homodimers, RXRγ receptor homodimers, or any combination thereof, or the corresponding RAR/RXR heterodimers, receptor-mediated transactivation assays were performed. For transactivation assays assessing RXR homodimer signaling, CV-1 cells were transfected with 1) an expression construct including a full length RXRα, RXRβ, or RXRγ; and 2) a rCRBPII/RXRE-tk-Luc reporter construct that included RXR homodimer-specific RXRE/DR1 responsive element linked to a luciferase gene. For transactivation assays assessing RAR/RXR heterodimer signaling, CV-1 cells were transfected with 1) an expression construct comprising a fusion protein including an estrogen receptor (ER) DNA binding domain linked to the ligand binding domain of RARα, RARβ, or RARγ and 2) a ERE-tk-Luc reporter construct that included an estrogen receptor responsive element linked to a luciferase gene. The ER-RAR fusion proteins provided an accurate readout of only the transfected ER-RAR. […] Data are mean values ±SE from five independent experiments.

[2] = target: RARα (Homo sapiens, UniProt P10276); details: at ≥1 μM
Description: To determine whether a RXR agonist can mediate its effects via RXRα receptor homodimers, RXRβ receptor homodimers, RXRγ receptor homodimers, or any combination thereof, or the corresponding RAR/RXR heterodimers, receptor-mediated transactivation assays were performed. For transactivation assays assessing RXR homodimer signaling, CV-1 cells were transfected with 1) an expression construct including a full length RXRα, RXRβ, or RXRγ; and 2) a rCRBPII/RXRE-tk-Luc reporter construct that included RXR homodimer-specific RXRE/DR1 responsive element linked to a luciferase gene. For transactivation assays assessing RAR/RXR heterodimer signaling, CV-1 cells were transfected with 1) an expression construct comprising a fusion protein including an estrogen receptor (ER) DNA binding domain linked to the ligand binding domain of RARα, RARβ, or RARγ and 2) a ERE-tk-Luc reporter construct that included an estrogen receptor responsive element linked to a luciferase gene. […] Data are mean values ±SE from five independent experiments.

[3] = target: T2, FXR/RXR (Homo sapiens, UniProt P19793); test: Permissive heterodimer transactivation assay, 3x(IBABP/IRI)-tk-Luc in CV-1 cells; format: cell-based; details: 20 hr; relative to GW4064
T2 construct: expressed in transfected cells; host or cells: CV-1
Text: (§1) For PPARγ: CV-1 cells were transfected with 3×(rAOX/DR1)-tk-Luc reporter gene and an expression vector for PPARγ. For FXR:CV-1 cells were transfected with 3×(IBABP/IRI)-tk-Luc reporter gene and vectors for FXR and RXRα. For LXR:CV-1 cells were transfected with 3×(PLTP/LXRE)-tk-Luc reporter gene with vectors for LXRα or LXRβ. For Nurr1: COS7 cells were transfected with 3×NBRE-tk-luc reporter gene and full length Nurr-1 with or without full-length RXRα plasmid. […] Luciferase data were normalized to co-transfected β-gal activity. Luciferase activity was expressed as percent of maximal activity obtained using specific agonists. Rosiglitazone (PPARγ), GW4064 (FXR), T0901317 (LXR).

[4] = test system: LXRα/RXR; test: Permissive heterodimer transactivation assay, 3x(PLTP/LXRE)-tk-Luc in CV-1 cells; format: cell-based; details: 20 hr; relative to T0901317
Text: as §1

[5] = test system: LXRβ/RXR; test: as above; format: cell-based; details: 20 hr; relative to T0901317
Text: as §1

[6] = test system: EAE in B6 mice; test: EAE dose titration experiment with spleen and CNS flow cytometry; format: in vivo, mouse; details: 200 μg/day vs vehicle control
Description: A dose titration experiment was also conducted in EAE mice. EAE was induced in 28 B6 mice with MOG/CFA and PT as above. Mice were scored on day 7 as indicated above and divided into groups by score so means are as equal as possible.
At the completion of the experiment, the vehicle control and 200 μg/day groups were euthanized and spleen and CNS samples obtained.
Additionally, CD4+ CD25hi cells (generally consisting of TReg) were reduced, although the frequency was not altered (FIGS. 9A and 9B).
Restimulation with PMA/lonomycin was used to help detect the cytokine production.

[7] = test system: EAE in C57BL/6 (B6) mice; test: CNS infiltrating cells in EAE mice (FACS, day 20); format: in vivo, mouse; details: day 20 after immunization, vs vehicle control
Description: To determine whether a RXR agonist can reduce central nervous system (CNS) infiltrating cells, C57BL/6 (B6) mice were treated as described in Example 6. On day 20 after immunization, mice were sacrificed and perfused with phosphate buffered saline (PBS). Brain and spinal cord tissue was isolated, digested with DNase and Liberase DL (Roche Diagnostics, Indianapolis, Ind.) for 30 minutes, and homogenized through 70 micron nylon mesh filters. Resulting cells were placed over a Percoll gradient to remove myelin. The remaining cells (microglia and CNS infiltrating cells) were counted, stained for molecules of interest, and run on a flow cytometer. Based on the frequencies obtained by FACS of these cell populations, total cell numbers of CNS infiltrating leukocytes expressing CD45, including CD4^+ T cells and CD11c^+ CD11b^+ myeloid dendritic cells (DC), were calculated.

[8] = test system: oligodendrocyte precursor cells (OPCs); test: Oligodendrocyte precursor cell differentiation (PLP-EGFP, Cellomics); format: cell-based, mouse; details: compared to negative control (DMSO)
Text: OPCs were generated from a neurosphere culture of E14.5 PLP-EGFP (on C57BL/6J background) mouse brains. […] The EGFP expressing cells were quantified with Cellomics Neuronal Profiling Algorithm.
The EGFP expressing cells in controls and all compounds were quantified with Cellomics Neuronal Profiling Algorithm.

[9] = test system: ethidium bromide demyelination of caudal cerebellar peduncles in one year old rats; test: Focal toxin (ethidium bromide) induced rat model of demyelination; format: in vivo; details: IRX4204 10 mg/kg/day oral
Description: The experiment uses rats of relatively advanced age (1 year) since such rats undergo remyelination in a less efficient manner, thereby providing data that are more relevant to the clinical treatment of human patients with multiple sclerosis or other demyelination disorders.
Focal demyelination is induced in one year old rats (approximately 300 g in weight) by injecting stereotactically 5 μl of ethidium bromide solution (0.01% vol/vol in saline) in a bilateral manner into the caudal cerebellar peduncles (CCP). […] The rats are killed on day 24 post-ethidium bromide treatment for analysis of remyelination by quantitative polymerase chain reaction (qPCR) and microscopy.

[10] = test system: cuprizone/rapamycin demyelination in C57BL/6J mice; test: 12-week cuprizone/rapamycin demyelination model, 6 weeks of treatment (remyelination); format: in vivo, mouse; details: 10 mg/kg PO daily for 6 weeks after 12 weeks CR
Text: All animals were sacrificed after 12 weeks of CR or after further 6 weeks of treatment to evaluate myelin in white matter (corpus callosum) and gray matter (hippocampus and cortex). In addition, the size of myelinated axons was quantified and the large myelinated axons were further assessed by 3D-electron microscopy (3D-EM). A total of 40 animals were included in the study, where all 40 animals received CR demyelination for 12 weeks. After demyelination, a subset (n=10) of animals are sacrificed to serve as controls to assess baseline demyelination. […] Floating brain sections are immunostained with myelin prolipid protein (PLP) to visualize and quantify myelin in gray matter, hippocampus (FIG. 16A) and cortex (FIG. 16B).

[11] = test system: Naive CD4+ CD25− FoxP3− cells; test: T cell differentiation under Th17 cell differentiation conditions (Foxp3, IL-17A); format: cell-based, mouse; details: 0, 1, 10, 100 nM, with increasing concentration
Description: To determine whether a RXR agonist can regulate T cell differentiation, the ability of an RXR agonist to promote Treg cell differentiation and inhibit Th17 cell differentiation under Th17 cell differentiation conditions was assessed by monitoring Foxp3 and IL-17A expression. Naive CD4^+ CD25^− FoxP3^− cells were purified from a Foxp3-GFP mouse using flow cytometry by sorting and isolating based upon a GFP^− phenotype.

[12] = test system: cuprizone plus rapamycin (CR) demyelination in C57BL/6J mice
Description: Animals (8 week-old male C57BL/6J mice) were subjected to cuprizone diet plus rapamycin injections (CR) for 6 weeks to induce demyelination. […] All animals were sacrificed after 6 weeks of CR to evaluate axonal integrity and microglial/macrophage activity in the white matter (corpus callosum, CC).
A total of 50 animals were included in the study, where 43 animals received CR demyelination for 6 weeks. During demyelination, a subset (n=7) of animals were kept on normal diet to serve as naïve age-matched controls.

[13] = test system: Naive CD4+ CD25− FoxP3− cells; test: Treg cell differentiation with RXR agonist in the presence of pan-RAR antagonist; format: cell-based, mouse; details: 1 nM or 10 nM 194310 with IRX4204 at 1.0 nM; Treg conditions
Description: Naive CD4^+ CD25^− FoxP3^− cells were purified from a Foxp3-GFP mouse using flow cytometry by sorting and isolating based upon a GFP^− phenotype. These cells were then cultured under Treg cell differentiation conditions by treating the cells with αCD3 and αCD28 polyclonal antibodies in the presence of IL-2 and TGF-β. […] The cultured cells were then assayed for the expression of Foxp3. […] However, this partial inhibition of Fox3p expression may actually be due to the blocking of the effects of endogenous RA in the culture medium.

T2 sequence (Q96RI1 whole entry partner): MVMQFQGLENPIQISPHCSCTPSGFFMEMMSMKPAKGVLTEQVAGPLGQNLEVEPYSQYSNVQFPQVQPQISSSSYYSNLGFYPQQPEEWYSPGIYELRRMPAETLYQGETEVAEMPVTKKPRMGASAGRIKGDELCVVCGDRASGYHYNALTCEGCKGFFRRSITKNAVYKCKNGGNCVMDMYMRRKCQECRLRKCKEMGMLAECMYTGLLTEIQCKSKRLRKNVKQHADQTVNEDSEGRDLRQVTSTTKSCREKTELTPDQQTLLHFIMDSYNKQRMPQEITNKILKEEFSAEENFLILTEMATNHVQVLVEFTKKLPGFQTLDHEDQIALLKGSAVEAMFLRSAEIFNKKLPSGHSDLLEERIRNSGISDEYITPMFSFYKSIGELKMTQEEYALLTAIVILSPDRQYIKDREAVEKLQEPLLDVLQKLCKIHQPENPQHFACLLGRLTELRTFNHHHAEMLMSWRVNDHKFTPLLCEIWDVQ
T2 sequence (P19793 whole entry): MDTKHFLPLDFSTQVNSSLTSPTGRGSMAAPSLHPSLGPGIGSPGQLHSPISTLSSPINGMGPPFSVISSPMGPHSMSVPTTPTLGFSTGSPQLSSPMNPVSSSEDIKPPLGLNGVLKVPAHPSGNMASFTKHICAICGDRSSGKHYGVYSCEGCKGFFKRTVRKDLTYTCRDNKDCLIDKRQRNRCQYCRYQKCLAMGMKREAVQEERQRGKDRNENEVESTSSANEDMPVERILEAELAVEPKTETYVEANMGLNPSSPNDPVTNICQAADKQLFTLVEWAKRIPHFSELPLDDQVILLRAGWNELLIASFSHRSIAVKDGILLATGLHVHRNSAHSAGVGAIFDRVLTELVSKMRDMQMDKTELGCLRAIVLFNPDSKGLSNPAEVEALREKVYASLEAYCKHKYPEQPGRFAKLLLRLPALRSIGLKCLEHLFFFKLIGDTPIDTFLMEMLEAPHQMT
Sequence of RARα (P10276 183-417 limits assumed, species assumed): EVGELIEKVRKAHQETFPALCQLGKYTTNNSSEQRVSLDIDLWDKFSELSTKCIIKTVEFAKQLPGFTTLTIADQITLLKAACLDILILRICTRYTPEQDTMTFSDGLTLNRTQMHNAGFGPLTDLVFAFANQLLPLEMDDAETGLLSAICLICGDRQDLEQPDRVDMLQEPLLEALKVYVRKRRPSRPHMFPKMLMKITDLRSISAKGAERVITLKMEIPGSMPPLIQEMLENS

CC(/C=C/[C@@H]1C[C@]1(C)c1ccc2c(c1)C(C)(C)CCC2(C)C)=C\C(=O)O [IRX4204, 3,7-dimethyl-6(S),7(S)-methano,7-[1,1,4,4-tetramethyl-1,2,3,4-tetrahydronaphth-7-yl]2(E),4(E) heptadienoic acid]
Efficacy (% of 1 μM IRX4204) RXRγ [1]: 0.09 ± 0.01 100 % of 1 μM IRX4204
RARα activity detected [2]: minimal activity
activation of FXR/RXR heterodimer [3]: not to transactivate; also recorded: does not activate
activation of LXRα/RXR heterodimer [4]: not to transactivate; also recorded: does not activate
activation of LXRβ/RXR heterodimer [5]: not to transactivate; also recorded: does not activate
CD4+ CD25hi cells frequency, spleen [6]: not altered
co-expression of IFNγ and IL-17A by CD4 T cells in CNS [6]: not significantly different between groups
infiltration of CD4+ cells into CNS [7]: significant reduction
infiltration of CD11c+ CD11b+ cells (myeloid DC) into CNS [7]: significant reduction
OPC differentiation into oligodendrocytes (EGFP positive cells) [8]: significant increase; also recorded: dose dependent increase
densities of Olig2+ oligodendrocyte lineage cells and CC1+ differentiated oligodendrocytes in lesions ([9]; day 7 to 21, ± 20 ng/g s.c. thyroxine): increased
Mbp and Pdgfra expression (real-time qPCR of lesion samples) ([9]; ± 20 ng/g s.c. thyroxine): increase
size of myelinated axons in the corpus callosum [10]: significant increase
Foxp3 expression (Treg cells) [11]: increased
IL-17A expression (Th17 cells) [11]: decreased
health concerns during the treatment phase ([12]; 6 weeks): no observed health concerns
number of SMI32 positive axonal ovoids in corpus callosum ([12]; compared to Vehicle, 6 weeks concurrent with CR): not statistically different from the Vehicle
Iba1 staining (microglial/macrophage activation) in corpus callosum ([12]; compared to vehicle): no difference

CCc1ccc(C2=CC(C)(C)Sc3ccc(C#Cc4ccc(C(=O)O)cc4)cc32)cc1 [Compound 194310]
effect on induction of Foxp3 expression by RXR agonist [13]: only partially blocked
